# In the kinase profiling compilation of Christmann-Franck et al. (2016):
# Assays:
# Assay in all cases: KINOMEscan competition binding
# Details in all cases: compound 1.0 µM
# BMPR1A (human) = BMPR1A (human) (UniProt P36894)
# SLK (human) = SLK (human) (UniProt Q9H2G2)
# TLK1 (human) = TLK1 (human) (UniProt Q9UKI8)
# [1] = system: EGFR (human), P00533 [L858R]
# [2] = system: PIK3CA (human), P42336 [H1047Y]
# PRKCQ (human) = PRKCQ (human) (UniProt Q04759)
# CDK7 (human) = CDK7 (human) (UniProt P50613)
# NEK6 (human) = NEK6 (human) (UniProt Q9HC98)
# TNK2 (human) = TNK2 (human) (UniProt Q07912)
# CDC42BPB (human) = CDC42BPB (human) (UniProt Q9Y5S2)
# PRKCD (human) = PRKCD (human) (UniProt Q05655)
# KDR (human) = KDR (human) (UniProt P35968)
# TAOK3 (human) = TAOK3 (human) (UniProt Q9H2K8)
# [3] = system: EIF2AK4 KD2 (human), Q9P2K8 [S808G]
# PRKACA (human) = PRKACA (human) (UniProt P17612)
# ICK (human) = ICK (human) (UniProt Q9UPZ9)
# NEK1 (human) = NEK1 (human) (UniProt Q96PY6)
# MKNK1 (human) = MKNK1 (human) (UniProt Q9BUB5)
# ACVRL1 (human) = ACVRL1 (human) (UniProt P37023)
# CDK18 (human) = CDK18 (human) (UniProt Q07002)
# MAP4K3 (human) = MAP4K3 (human) (UniProt Q8IVH8)
# [4] = molecular target: JAK3 JH1 catalytic (human) (UniProt P52333)
# TYRO3 (human) = TYRO3 (human) (UniProt Q06418)
# MYLK4 (human) = MYLK4 (human) (UniProt Q86YV6)
# NUAK1 (human) = NUAK1 (human) (UniProt O60285)
# SGK3 (human) = SGK3 (human) (UniProt Q96BR1)
# MET (human) = MET (human) (UniProt P08581)
# ABL2 (human) = ABL2 (human) (UniProt P42684)
# NEK11 (human) = NEK11 (human) (UniProt Q8NG66)
# MAP3K2 (human) = MAP3K2 (human) (UniProt Q9Y2U5)
# ANKK1 (human) = ANKK1 (human) (UniProt Q8NFD2)
# ROCK1 (human) = ROCK1 (human) (UniProt Q13464)
# CDK13 (human) = CDK13 (human) (UniProt Q14004)
# LIMK2 (human) = LIMK2 (human) (UniProt P53671)
# MAP3K6 (human) = MAP3K6 (human) (UniProt O95382)
# DYRK1B (human) = DYRK1B (human) (UniProt Q9Y463)
# [5] = system: PIK3CA (human), P42336 [C420R]
# PIK3CG (human) = PIK3CG (human) (UniProt P48736)
# MUSK (human) = MUSK (human) (UniProt O15146)
# TAOK1 (human) = TAOK1 (human) (UniProt Q7L7X3)
# TEK (human) = TEK (human) (UniProt Q02763)
# PIM2 (human) = PIM2 (human) (UniProt Q9P1W9)
# MAP3K4 (human) = MAP3K4 (human) (UniProt Q9Y6R4)
# Chain of TLK1 (human) (Q9UKI8 whole entry, looked up): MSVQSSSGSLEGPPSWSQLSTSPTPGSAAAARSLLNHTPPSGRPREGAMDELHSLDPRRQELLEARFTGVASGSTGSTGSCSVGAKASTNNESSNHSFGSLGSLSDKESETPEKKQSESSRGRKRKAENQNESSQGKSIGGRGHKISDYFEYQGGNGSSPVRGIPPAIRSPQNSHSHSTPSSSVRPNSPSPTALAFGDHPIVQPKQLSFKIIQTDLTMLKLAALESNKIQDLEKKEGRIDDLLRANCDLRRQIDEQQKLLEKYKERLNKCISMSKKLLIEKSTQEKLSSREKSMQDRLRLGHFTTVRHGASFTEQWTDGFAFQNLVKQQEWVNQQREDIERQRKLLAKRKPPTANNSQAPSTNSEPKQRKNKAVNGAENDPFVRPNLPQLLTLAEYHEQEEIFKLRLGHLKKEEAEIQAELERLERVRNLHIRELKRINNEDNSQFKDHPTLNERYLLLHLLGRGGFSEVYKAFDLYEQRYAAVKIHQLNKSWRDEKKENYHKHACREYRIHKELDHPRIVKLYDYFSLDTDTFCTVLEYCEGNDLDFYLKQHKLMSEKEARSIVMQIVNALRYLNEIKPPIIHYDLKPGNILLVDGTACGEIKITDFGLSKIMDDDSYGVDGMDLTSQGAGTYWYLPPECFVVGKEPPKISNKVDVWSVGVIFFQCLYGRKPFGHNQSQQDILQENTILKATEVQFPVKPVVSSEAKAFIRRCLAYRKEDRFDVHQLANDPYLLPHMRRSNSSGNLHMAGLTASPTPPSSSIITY
# Chain of PIK3CA (human), P42336 [H1047Y] (P42336 whole entry H1047Y, looked up): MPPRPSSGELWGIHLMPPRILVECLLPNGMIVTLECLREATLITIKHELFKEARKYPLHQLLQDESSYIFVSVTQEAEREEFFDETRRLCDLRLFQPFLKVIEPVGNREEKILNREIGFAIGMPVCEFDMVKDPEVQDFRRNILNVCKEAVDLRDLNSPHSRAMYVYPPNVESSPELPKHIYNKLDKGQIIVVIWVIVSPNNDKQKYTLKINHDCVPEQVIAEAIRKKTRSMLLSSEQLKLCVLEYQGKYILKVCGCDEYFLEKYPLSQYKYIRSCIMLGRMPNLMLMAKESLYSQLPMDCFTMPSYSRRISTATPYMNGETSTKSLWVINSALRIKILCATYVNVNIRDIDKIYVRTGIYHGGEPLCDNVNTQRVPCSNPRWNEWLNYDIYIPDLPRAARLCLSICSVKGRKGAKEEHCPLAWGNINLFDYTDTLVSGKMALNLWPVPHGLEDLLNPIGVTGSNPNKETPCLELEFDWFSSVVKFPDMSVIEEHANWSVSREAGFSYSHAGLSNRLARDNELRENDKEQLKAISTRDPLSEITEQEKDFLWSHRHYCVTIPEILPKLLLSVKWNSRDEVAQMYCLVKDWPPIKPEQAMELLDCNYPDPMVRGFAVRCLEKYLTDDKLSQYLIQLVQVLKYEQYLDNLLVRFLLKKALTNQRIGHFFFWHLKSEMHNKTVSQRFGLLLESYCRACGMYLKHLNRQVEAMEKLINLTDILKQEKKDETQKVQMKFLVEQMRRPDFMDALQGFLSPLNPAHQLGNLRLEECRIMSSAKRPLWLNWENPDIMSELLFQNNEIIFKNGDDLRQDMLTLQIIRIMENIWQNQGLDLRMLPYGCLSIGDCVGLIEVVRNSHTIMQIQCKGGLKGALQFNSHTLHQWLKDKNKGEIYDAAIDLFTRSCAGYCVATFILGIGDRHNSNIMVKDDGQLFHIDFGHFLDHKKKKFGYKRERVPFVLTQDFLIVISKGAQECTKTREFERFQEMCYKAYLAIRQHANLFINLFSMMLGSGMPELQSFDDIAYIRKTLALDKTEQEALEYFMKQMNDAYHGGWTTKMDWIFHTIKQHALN
# Chain of LIMK2 (human) (P53671 whole entry, looked up): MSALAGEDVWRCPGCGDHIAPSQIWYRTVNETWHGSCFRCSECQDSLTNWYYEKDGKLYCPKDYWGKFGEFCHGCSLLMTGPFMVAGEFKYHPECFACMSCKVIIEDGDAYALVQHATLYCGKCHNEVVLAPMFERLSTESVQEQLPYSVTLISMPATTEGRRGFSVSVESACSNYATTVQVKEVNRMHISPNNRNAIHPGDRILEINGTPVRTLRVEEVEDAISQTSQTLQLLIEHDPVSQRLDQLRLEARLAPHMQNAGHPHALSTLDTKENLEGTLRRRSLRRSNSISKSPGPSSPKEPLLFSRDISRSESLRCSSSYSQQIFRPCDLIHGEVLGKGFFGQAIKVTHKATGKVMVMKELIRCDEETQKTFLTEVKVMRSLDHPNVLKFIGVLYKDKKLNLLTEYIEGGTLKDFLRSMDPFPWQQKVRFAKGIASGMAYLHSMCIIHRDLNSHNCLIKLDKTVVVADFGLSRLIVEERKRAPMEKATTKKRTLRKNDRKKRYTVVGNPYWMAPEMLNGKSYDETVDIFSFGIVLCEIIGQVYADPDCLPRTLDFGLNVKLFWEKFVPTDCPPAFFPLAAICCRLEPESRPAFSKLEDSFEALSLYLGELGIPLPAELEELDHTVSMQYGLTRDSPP
# Chain of CDK13 (human) (Q14004 whole entry, looked up): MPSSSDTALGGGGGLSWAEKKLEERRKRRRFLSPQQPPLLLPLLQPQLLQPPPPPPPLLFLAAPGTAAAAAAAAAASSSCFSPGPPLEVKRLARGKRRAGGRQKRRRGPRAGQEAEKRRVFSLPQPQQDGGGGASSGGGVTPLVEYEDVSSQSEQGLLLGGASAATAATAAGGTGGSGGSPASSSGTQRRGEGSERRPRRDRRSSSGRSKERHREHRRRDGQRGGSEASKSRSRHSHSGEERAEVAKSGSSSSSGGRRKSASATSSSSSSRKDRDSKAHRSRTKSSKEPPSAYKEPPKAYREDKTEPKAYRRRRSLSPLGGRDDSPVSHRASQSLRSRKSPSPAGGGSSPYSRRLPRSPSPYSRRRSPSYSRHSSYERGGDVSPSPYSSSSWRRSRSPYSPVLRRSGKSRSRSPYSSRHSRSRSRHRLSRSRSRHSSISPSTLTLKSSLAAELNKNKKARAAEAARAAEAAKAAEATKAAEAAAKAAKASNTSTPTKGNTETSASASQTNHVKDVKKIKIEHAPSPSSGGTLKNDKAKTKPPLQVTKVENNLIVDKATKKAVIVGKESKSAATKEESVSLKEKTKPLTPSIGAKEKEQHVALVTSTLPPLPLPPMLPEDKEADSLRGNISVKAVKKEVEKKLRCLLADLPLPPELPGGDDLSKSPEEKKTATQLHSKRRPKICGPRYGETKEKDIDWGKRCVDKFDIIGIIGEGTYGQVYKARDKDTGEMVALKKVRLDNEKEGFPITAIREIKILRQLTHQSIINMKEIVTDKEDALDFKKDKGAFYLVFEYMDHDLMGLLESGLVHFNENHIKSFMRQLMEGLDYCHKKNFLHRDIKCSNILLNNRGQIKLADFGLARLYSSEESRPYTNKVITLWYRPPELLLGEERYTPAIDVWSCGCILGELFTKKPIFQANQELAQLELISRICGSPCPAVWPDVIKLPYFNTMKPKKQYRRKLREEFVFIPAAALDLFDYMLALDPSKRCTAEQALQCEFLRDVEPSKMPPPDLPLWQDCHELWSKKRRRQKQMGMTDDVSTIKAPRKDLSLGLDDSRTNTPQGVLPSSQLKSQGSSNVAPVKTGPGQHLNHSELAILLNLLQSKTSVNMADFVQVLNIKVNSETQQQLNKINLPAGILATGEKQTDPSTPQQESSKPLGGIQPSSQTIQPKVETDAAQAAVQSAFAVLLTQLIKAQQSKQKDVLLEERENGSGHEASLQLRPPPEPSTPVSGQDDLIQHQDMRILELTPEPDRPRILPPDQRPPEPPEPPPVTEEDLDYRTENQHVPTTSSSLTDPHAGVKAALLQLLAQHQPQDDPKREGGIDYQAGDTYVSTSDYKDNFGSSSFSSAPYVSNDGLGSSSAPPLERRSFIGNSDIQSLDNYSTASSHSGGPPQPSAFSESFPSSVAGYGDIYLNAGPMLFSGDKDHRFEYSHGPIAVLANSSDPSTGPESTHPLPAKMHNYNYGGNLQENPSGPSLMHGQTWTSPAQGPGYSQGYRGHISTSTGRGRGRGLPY
# Chain of DYRK1B (human) (Q9Y463 whole entry, looked up): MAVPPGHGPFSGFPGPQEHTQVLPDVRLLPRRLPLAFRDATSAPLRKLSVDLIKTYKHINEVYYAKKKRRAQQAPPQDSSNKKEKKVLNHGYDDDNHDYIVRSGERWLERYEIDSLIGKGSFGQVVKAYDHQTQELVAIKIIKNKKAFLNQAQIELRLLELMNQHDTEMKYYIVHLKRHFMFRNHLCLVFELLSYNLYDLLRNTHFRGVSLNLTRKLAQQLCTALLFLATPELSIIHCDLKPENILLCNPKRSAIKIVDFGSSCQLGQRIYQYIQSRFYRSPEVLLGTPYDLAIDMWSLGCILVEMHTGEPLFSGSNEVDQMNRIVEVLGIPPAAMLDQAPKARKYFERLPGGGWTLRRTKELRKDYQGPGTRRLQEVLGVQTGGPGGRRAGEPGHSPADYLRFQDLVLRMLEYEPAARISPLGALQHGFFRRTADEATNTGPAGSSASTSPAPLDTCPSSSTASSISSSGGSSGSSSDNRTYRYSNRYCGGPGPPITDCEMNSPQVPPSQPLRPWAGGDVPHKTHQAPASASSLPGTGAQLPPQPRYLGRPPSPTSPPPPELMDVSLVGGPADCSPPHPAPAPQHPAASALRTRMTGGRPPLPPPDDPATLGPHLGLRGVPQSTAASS
# Chain of PIK3CA (human), P42336 [C420R] (P42336 whole entry C420R, looked up): as the sequence (P42336 whole entry H1047Y, looked up) above, with C420R, Y1047H counted along it
# Chain of CDK7 (human) (P50613 whole entry, looked up): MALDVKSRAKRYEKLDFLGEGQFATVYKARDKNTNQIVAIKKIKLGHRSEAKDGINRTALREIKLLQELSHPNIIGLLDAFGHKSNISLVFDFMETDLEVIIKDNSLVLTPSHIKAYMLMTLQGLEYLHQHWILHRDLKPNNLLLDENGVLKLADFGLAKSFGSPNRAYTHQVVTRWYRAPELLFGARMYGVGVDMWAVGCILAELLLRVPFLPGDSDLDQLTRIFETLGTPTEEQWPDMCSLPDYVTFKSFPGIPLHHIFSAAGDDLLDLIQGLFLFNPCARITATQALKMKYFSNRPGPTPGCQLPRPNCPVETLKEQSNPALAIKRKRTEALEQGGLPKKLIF
structure (smiles),measurement,setting,value
COCCNCCCn1c(C(=O)CF)c(-c2ccc(C)cc2)c2c(N)ncnc21,"kinase still bound, per cent of control",BMPR1A (human),100%
same,"kinase still bound, per cent of control",SLK (human),100%
same,"kinase still bound, per cent of control",TLK1 (human),78%
same,"kinase still bound, per cent of control",[1],62%
same,"kinase still bound, per cent of control",[2],100%
same,"kinase still bound, per cent of control",PRKCQ (human),99%
same,"kinase still bound, per cent of control",CDK7 (human),100%
same,"kinase still bound, per cent of control",NEK6 (human),100%
same,"kinase still bound, per cent of control",TNK2 (human),100%
same,"kinase still bound, per cent of control",CDC42BPB (human),94%
same,"kinase still bound, per cent of control",PRKCD (human),90%
same,"kinase still bound, per cent of control",KDR (human),85%
same,"kinase still bound, per cent of control",TAOK3 (human),100%
same,"kinase still bound, per cent of control",[3],100%
same,"kinase still bound, per cent of control",PRKACA (human),100%
same,"kinase still bound, per cent of control",ICK (human),100%
same,"kinase still bound, per cent of control",NEK1 (human),100%
same,"kinase still bound, per cent of control",MKNK1 (human),100%
same,"kinase still bound, per cent of control",ACVRL1 (human),100%
same,"kinase still bound, per cent of control",CDK18 (human),100%
same,"kinase still bound, per cent of control",MAP4K3 (human),100%
same,"kinase still bound, per cent of control",[4],100%
same,"kinase still bound, per cent of control",TYRO3 (human),100%
same,"kinase still bound, per cent of control",MYLK4 (human),86%
same,"kinase still bound, per cent of control",NUAK1 (human),98%
same,"kinase still bound, per cent of control",SGK3 (human),79%
same,"kinase still bound, per cent of control",MET (human),97%
same,"kinase still bound, per cent of control",ABL2 (human),100%
same,"kinase still bound, per cent of control",NEK11 (human),63%
same,"kinase still bound, per cent of control",MAP3K2 (human),90%
same,"kinase still bound, per cent of control",ANKK1 (human),100%
same,"kinase still bound, per cent of control",ROCK1 (human),98%
same,"kinase still bound, per cent of control",CDK13 (human),90%
same,"kinase still bound, per cent of control",LIMK2 (human),100%
same,"kinase still bound, per cent of control",MAP3K6 (human),100%
same,"kinase still bound, per cent of control",DYRK1B (human),96%
same,"kinase still bound, per cent of control",[5],100%
same,"kinase still bound, per cent of control",PIK3CG (human),100%
same,"kinase still bound, per cent of control",MUSK (human),100%
same,"kinase still bound, per cent of control",TAOK1 (human),100%
same,"kinase still bound, per cent of control",TEK (human),100%
same,"kinase still bound, per cent of control",PIM2 (human),99%
same,"kinase still bound, per cent of control",MAP3K4 (human),100%
